Tests used:
[1] = tested on: antibodies in sera from SARS patients (sera 1a, 1b, 2, 6, 37, 62, London, SARS-yellow, SARS-green); format: binding, human; set-up: Binding of serum 6 to linear peptides of protein X1 of SARS-CoV Urbani / Binding of serum 37 to linear peptides of protein X1 of SARS-CoV Urbani / Binding of serum 6 to looped/cyclic peptide (PEPSCAN-ELISA) / Binding of serum 37 to looped/cyclic peptide (PEPSCAN-ELISA) / Binding of serum 37 to looped/cyclic peptides of protein X1 of SARS-CoV Urbani / Binding of serum 6 to linear peptides of protein X2 / Binding of serum 37 to linear peptides of protein X2 / Binding of serum 37 to looped/cyclic peptides of protein X2 of SARS-CoV Urbani / Binding of serum 6 to linear peptides of protein M of SARS-CoV Urbani / Binding of serum 37 to linear peptides of protein M of SARS-CoV Urbani / Binding of serum 6 to looped/cyclic peptides of protein M of SARS-CoV Urbani / Binding of serum 37 to looped/cyclic peptides of protein M of SARS-CoV Urbani / Binding of serum 6 to linear peptides of protein X3 of SARS-CoV Urbani / Binding of serum 37 to linear peptides of protein X3 of SARS-CoV Urbani / Binding of serum 37 to looped/cyclic peptides of protein X3 of SARS-CoV Urbani / Binding of serum 6 to linear peptides of protein X4 of SARS-CoV Urbani / Binding of serum 37 to linear peptides of protein X4 of SARS-CoV Urbani / Binding of serum 37 to looped/cyclic peptides of protein X4 of SARS-CoV Urbani / Binding of serum 6 to linear peptides of protein X5 of SARS-CoV Urbani / Binding of serum 37 to linear peptides of protein X5 of SARS-CoV Urbani / Binding of serum 37 to looped/cyclic peptides of protein X5 of SARS-CoV Urbani / Binding of serum 6 to linear peptides of protein N of SARS-CoV Urbani / Binding of serum 37 to linear peptides of protein N of SARS-CoV Urbani / Binding of serum 6 to linear peptide (PEPSCAN-ELISA) / Binding of serum 1a to looped/cyclic peptides of protein N of SARS-CoV Urbani / Binding of serum 1b to looped/cyclic peptides of protein N of SARS-CoV Urbani / Binding of serum 2 to looped/cyclic peptides of protein N of SARS-CoV Urbani / Binding of serum 6 to looped/cyclic peptides of protein N of SARS-CoV Urbani / Binding of serum 37 to looped/cyclic peptides of protein N of SARS-CoV Urbani / Binding of serum 62 to looped/cyclic peptides of protein N of SARS-CoV Urbani / Binding of serum London to looped/cyclic peptides of protein N of SARS-CoV Urbani / Binding of serum SARS-green to looped/cyclic peptides of protein N of SARS-CoV Urbani: unit not given here
[2] = tested on: control sera (pooled serum of ten healthy LUMC hospital workers; commercial negative donor pooled serum from the Dutch bloodbank); format: binding, human; set-up: Binding of Control serum LUMC to linear peptides / Binding of Control serum Blood-bank to linear peptides / Binding of Control serum LUMC to looped peptides / Binding of Control Serum Blood-Bank to Looped peptides / Binding of Control serum LUMC to linear peptides of the protein M of SARS-CoV Urbani / Binding of Control serum Blood-bank to linear peptides of the protein M of SARS-CoV Urbani / Binding of Control serum LUMC to looped peptides of the protein M of SARS-CoV Urbani / Binding of Control Serum Blood-Bank to Looped peptides of the protein M of SARS-CoV Urbani: unit not given here
[3] = tested on: rabbit serum obtained by immunizing a rabbit with the SARS-CoV strain Frankfurt 1; format: binding; set-up: Binding of a rabbit serum to linear peptides / Binding of a rabbit serum to looped peptides / Rabbit serum linear peptides / Rabbit serum looped peptides / Binding of a rabbit serum to linear peptides of protein N of SARS-CoV Urbani (Rabbit serum linear peptides) / Binding of a rabbit serum to looped/cyclic peptides of protein N of SARS-CoV Urbani (Rabbit serum looped peptides): unit not given here

IQFMMSRRRLLACLC
Binding of serum 1a to linear peptides of protein X2 [1]: 0.7
Binding of serum 1a to looped/cyclic peptides of protein X2 of SARS-CoV Urbani [1]: 0.4
Binding of serum 1b to linear peptides of protein X2 [1]: 0.5
Binding of serum 1b to looped/cyclic peptides of protein X2 of SARS-CoV Urbani [1]: 0.2
Binding of serum 2 to linear peptides of protein X2 [1]: 0.4
Binding of serum 2 to looped/cyclic peptides of protein X2 of SARS-CoV Urbani [1]: 0.5
Binding of serum 6 to linear peptides of protein X2 [1]: 0.6
Binding of serum 6 to looped/cyclic peptides of protein X2 of SARS-CoV Urbani [1]: 0.3
Binding of serum 37 to linear peptides of protein X2 [1]: 0.6
Binding of serum 37 to looped/cyclic peptides of protein X2 of SARS-CoV Urbani [1]: 0.2
Binding of serum 62 to linear peptides of protein X2 [1]: 0.7
Binding of serum 62 to looped/cyclic peptides of protein X2 of SARS-CoV Urbani [1]: 0.3
Binding of serum London to linear peptides of protein X2 [1]: 0.5
Binding of serum London to looped/cyclic peptides of protein X2 of SARS-CoV Urbani [1]: 0.4
Binding of serum SARS-green to linear peptides of protein X2 [1]: 0.6
Binding of serum SARS-green to looped/cyclic peptides of protein X2 of SARS-CoV Urbani [1]: 0.2
Binding of serum SARS-yellow to linear peptides of protein X2 [1]: 0.8
Binding of serum SARS-yellow to looped/cyclic peptides of protein X2 of SARS-CoV Urbani [1]: 0.5
Binding of Control Serum Blood-Bank to Looped peptides [2]: 0.3
Binding of Control serum Blood-bank to linear peptides [2]: 0.8
Binding of Control serum LUMC to linear peptides [2]: 0.6
Binding of Control serum LUMC to looped peptides [2]: 0.4
Binding of a rabbit serum to linear peptides [3]: 0.5
Binding of a rabbit serum to looped peptides [3]: 1.1

GMEAQFLYLYALIYF
Binding of serum 1a to linear peptides of protein X1 of SARS-CoV Urbani [1]: 0.8
Binding of serum 1a to looped/cyclic peptide (PEPSCAN-ELISA) [1]: 0.6
Binding of serum 1b to linear peptides of protein X1 of SARS-CoV Urbani [1]: 0.6
Binding of serum 1b to looped/cyclic peptide (PEPSCAN-ELISA) [1]: 0.4
Binding of serum 2 to linear peptides of protein X1 of SARS-CoV Urbani [1]: 0.6
Binding of serum 2 to looped/cyclic peptide (PEPSCAN-ELISA) [1]: 0.5
Binding of serum 6 to linear peptides of protein X1 of SARS-CoV Urbani [1]: 0.5
Binding of serum 6 to looped/cyclic peptide (PEPSCAN-ELISA) [1]: 0.3
Binding of serum 37 to linear peptides of protein X1 of SARS-CoV Urbani [1]: 0.5
Binding of serum 37 to looped/cyclic peptide (PEPSCAN-ELISA) [1]: 0.4
Binding of serum 62 to linear peptides of protein X1 of SARS-CoV Urbani [1]: 0.4
Binding of serum 62 to looped/cyclic peptide (PEPSCAN-ELISA) [1]: 0.5
Binding of serum London to linear peptides of protein X1 of SARS-CoV Urbani [1]: 0.2
Binding of serum London to looped/cyclic peptide (PEPSCAN-ELISA) [1]: 0.2
Binding of serum SARS-green to linear peptides of protein X1 of SARS-CoV Urbani [1]: 0.1
Binding of serum SARS-green to looped/cyclic peptide (PEPSCAN-ELISA) [1]: 0.3
Binding of serum SARS-yellow to linear peptides of protein X1 of SARS-CoV Urbani [1]: 0.3
Binding of serum SARS-yellow to looped/cyclic peptide (PEPSCAN-ELISA) [1]: 0.4
Binding of Control Serum Blood-Bank to Looped peptides [2]: 0.5
Binding of Control serum Blood-bank to linear peptides [2]: 0.4
Binding of Control serum LUMC to linear peptides [2]: 0.6
Binding of Control serum LUMC to looped peptides [2]: 0.8
Binding of a rabbit serum to linear peptides [3]: 0.1
Binding of a rabbit serum to looped peptides [3]: 0.6

MACIVGLMWLSYFVA
Binding of serum 1a to linear peptides of protein M of SARS-CoV Urbani [1]: 0.7
Binding of serum 1a to looped/cyclic peptides of protein M of SARS-CoV Urbani [1]: 0.7
Binding of serum 1b to linear peptides of protein M of SARS-CoV Urbani [1]: 0.5
Binding of serum 1b to looped/cyclic peptides of protein M of SARS-CoV Urbani [1]: 0.4
Binding of serum 2 to linear peptides of protein M of SARS-CoV Urbani [1]: 0.4
Binding of serum 2 to looped/cyclic peptides of protein M of SARS-CoV Urbani [1]: 0.4
Binding of serum 6 to linear peptides of protein M of SARS-CoV Urbani [1]: 0.3
Binding of serum 6 to looped/cyclic peptides of protein M of SARS-CoV Urbani [1]: 0.5
Binding of serum 37 to linear peptides of protein M of SARS-CoV Urbani [1]: 0.4
Binding of serum 37 to looped/cyclic peptides of protein M of SARS-CoV Urbani [1]: 0.4
Binding of serum 62 to linear peptides of protein M of SARS-CoV Urbani [1]: 0.4
Binding of serum 62 to looped/cyclic peptides of protein M of SARS-CoV Urbani [1]: 0.5
Binding of serum London to linear peptides of protein M of SARS-CoV Urbani [1]: 0.3
Binding of serum London to looped/cyclic peptides of protein M of SARS-CoV Urbani [1]: 0.2
Binding of serum SARS-green to linear peptides of protein M of SARS-CoV Urbani [1]: 0.3
Binding of serum SARS-green to looped/cyclic peptides of protein M of SARS-CoV Urbani [1]: 0.2
Binding of serum SARS-yellow to linear peptides of protein M of SARS-CoV Urbani [1]: 0.2
Binding of serum SARS-yellow to looped/cyclic peptides of protein M of SARS-CoV Urbani [1]: 0.4
Binding of Control Serum Blood-Bank to Looped peptides of the protein M of SARS-CoV Urbani [2]: 0.4
Binding of Control serum Blood-bank to linear peptides of the protein M of SARS-CoV Urbani [2]: 0.5
Binding of Control serum LUMC to linear peptides of the protein M of SARS-CoV Urbani [2]: 0.5
Binding of Control serum LUMC to looped peptides of the protein M of SARS-CoV Urbani [2]: 0.6
Rabbit serum linear peptides [3]: 0.2
Rabbit serum looped peptides [3]: 0.0
